Assay results reported in ChEMBL document CHEMBL6127111, “First-in-Class Small Molecule Degrader of Pregnane X Receptor Enhances Chemotherapy Efficacy” (J Med Chem, 2024).
Blank lines part the entries; values can stand above or below the molecule they belong to.

How the values were obtained:
[1] = molecular target: von Hippel-Lindau disease tumor suppressor/Nuclear receptor subfamily 1 group I member 2 (Homo sapiens, UniProt O75469+P40337); assay: PROTAC activity at N-terminal PXR/VHL in human SNU-C4 HiBiT-PXR KI cell assessed as reduction in PXR protein level incubated for 24 hrs by Western blot analysis; assay type: cell-based
[2] = Cytotoxicity against human SNU-C4 HiBiT-PXR KI cell assessed as cell viability incubated for 24 hrs by celltiter-glo luminescent assay; assay type: functional
[3] = Cytotoxicity against human SNU-C4 HiBiT-PXR KI cell assessed as cell viability incubated for 72 hrs by celltiter-glo luminescent assay; assay type: functional
[4] = Cytotoxicity against human SNU-C4 HiBiT-PXR KI cell assessed as cell viability at 30 uM incubated for 24 hrs by celltiter-glo luminescent assay relative to control; assay type: functional; settings: read-out: Activity
[5] = Cytotoxicity against human SNU-C4 HiBiT-PXR KI cell assessed as cell viability at 30 uM incubated for 72 hrs by celltiter-glo luminescent assay relative to control; assay type: functional; settings: read-out: Activity

von Hippel-Lindau disease tumor suppressor/Nuclear receptor subfamily 1 group I member 2, sequence (O75469 whole entry): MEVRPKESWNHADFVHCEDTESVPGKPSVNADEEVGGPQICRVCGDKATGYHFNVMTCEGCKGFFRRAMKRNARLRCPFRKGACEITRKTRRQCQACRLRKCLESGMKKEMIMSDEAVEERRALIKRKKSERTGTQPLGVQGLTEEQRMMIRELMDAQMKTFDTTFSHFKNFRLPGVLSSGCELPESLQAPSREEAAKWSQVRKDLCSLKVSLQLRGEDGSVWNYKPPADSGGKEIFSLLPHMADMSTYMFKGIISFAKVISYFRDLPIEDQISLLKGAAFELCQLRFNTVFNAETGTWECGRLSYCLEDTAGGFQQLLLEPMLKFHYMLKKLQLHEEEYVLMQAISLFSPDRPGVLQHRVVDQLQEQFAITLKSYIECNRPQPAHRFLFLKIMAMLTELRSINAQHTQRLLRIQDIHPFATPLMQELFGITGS
von Hippel-Lindau disease tumor suppressor/Nuclear receptor subfamily 1 group I member 2, sequence (P40337 whole entry): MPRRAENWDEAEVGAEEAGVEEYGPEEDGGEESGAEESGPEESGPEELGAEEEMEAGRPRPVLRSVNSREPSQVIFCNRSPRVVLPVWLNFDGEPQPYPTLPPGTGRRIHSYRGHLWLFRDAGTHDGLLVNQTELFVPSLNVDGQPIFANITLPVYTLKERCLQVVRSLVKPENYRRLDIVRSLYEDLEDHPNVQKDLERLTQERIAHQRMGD

SMILES: CCC[C@H](CC)Oc1ccc(C(=O)N[C@H](C(=O)N2C[C@H](O)C[C@H]2C(=O)NCc2ccc(-c3scnc3C)cc2)C(C)(C)C)cc1NC(=O)c1nnn(-c2cc(OC)ccc2OC)c1C
- DC50 [1]: > 30 µM
- viability at 30 µM [4]: 99.9%
- CC50 [2]: > 30 µM
- CC50 [3]: > 30 µM
- viability at 30 µM [5]: 101%

SMILES: COc1cc(OCCCCCCOCCOCC(=O)N[C@H](C(=O)N2C[C@H](O)C[C@H]2C(=O)NCc2ccc(-c3scnc3C)cc2)C(C)(C)C)c(C)cc1-n1nnc(S(=O)(=O)c2ccc(C(C)(C)C)cc2)c1C
- CC50 [2]: > 30 µM
- CC50 [3]: > 30 µM

SMILES: CCC[C@H](CC)Oc1ccc(C(C)(C)C)cc1NC(=O)c1nnn(-c2cc(C)c(OC)cc2OC)c1C
- DC50 [1]: > 30 µM
- viability at 30 µM [4]: 99.3%
- CC50 [2]: > 30 µM
- CC50 [3]: > 30 µM
- viability at 30 µM [5]: 106%

SMILES: CCC[C@H](CC)Oc1ccc(C(C)(C)C)cc1NC(=O)c1nnn(-c2cc(OC)ccc2OC)c1C
- DC50 [1]: > 30 µM
- viability at 30 µM [4]: 95.7%
- CC50 [2]: > 30 µM
- CC50 [3]: > 30 µM
- viability at 30 µM [5]: 98.7%

SMILES: CCC[C@H](CC)Oc1ccc(C(=O)NCCCCCCCCC(=O)N[C@H](C(=O)N2C[C@H](O)C[C@H]2C(=O)NCc2ccc(-c3scnc3C)cc2)C(C)(C)C)cc1NC(=O)c1nnn(-c2cc(OC)ccc2OC)c1C
- DC50 [1]: > 30 µM
- viability at 30 µM [4]: 102%
- CC50 [2]: > 30 µM
- CC50 [3]: > 30 µM
- viability at 30 µM [5]: 104%

SMILES: CCC[C@H](CC)Oc1ccc(C(=O)NCCCCC(=O)N[C@H](C(=O)N2C[C@H](O)C[C@H]2C(=O)NCc2ccc(-c3scnc3C)cc2)C(C)(C)C)cc1NC(=O)c1nnn(-c2cc(OC)ccc2OC)c1C
- DC50 [1]: > 30 µM
- viability at 30 µM [4]: 101%
- CC50 [2]: > 30 µM
- CC50 [3]: > 30 µM
- viability at 30 µM [5]: 98.9%

SMILES: CC(=O)N[C@H](C(=O)N1C[C@H](O)C[C@H]1C(=O)NCc1ccc(-c2scnc2C)cc1)C(C)(C)C
- viability at 30 µM [4]: 99.6%
- CC50 [2]: > 30 µM
- CC50 [3]: > 30 µM
- viability at 30 µM [5]: 93%

SMILES: CCC[C@H](CC)Oc1ccc(C(C)(C)C)cc1NC(=O)c1nnn(-c2cc(C)c(OCCCCCCOCCOCC(=O)N[C@H](C(=O)N3C[C@H](O)C[C@H]3C(=O)NCc3ccc(-c4scnc4C)cc3)C(C)(C)C)cc2OC)c1C
- viability at 30 µM [4]: 93.9%
- CC50 [2]: > 30 µM
- CC50 [3]: > 30 µM
- viability at 30 µM [5]: 104%

SMILES: COc1ccc(OC)c(-n2nnc(C(=O)Nc3cc(OCCCCCCOCCOCC(=O)N[C@H](C(=O)N4C[C@H](O)C[C@H]4C(=O)NCc4ccc(-c5scnc5C)cc4)C(C)(C)C)cc(C(C)(C)C)c3)c2C)c1
- viability at 30 µM [4]: 83.2%
- CC50 [2]: > 30 µM
- CC50 [3]: > 30 µM
- viability at 30 µM [5]: 68.2%

SMILES: CCCCOc1ccc(C(C)(C)C)cc1NC(=O)c1nnn(-c2cc(C)c(OCCCCCCOCCOCC(=O)N[C@H](C(=O)N3C[C@H](O)C[C@H]3C(=O)NCc3ccc(-c4scnc4C)cc3)C(C)(C)C)cc2OC)c1C
- viability at 30 µM [4]: 96.7%
- CC50 [2]: > 30 µM
- CC50 [3]: > 30 µM
- viability at 30 µM [5]: 91.2%

SMILES: COc1cc(OCCCCCCOCCCCCOCCCCCC(=O)N[C@H](C(=O)N2C[C@H](O)C[C@H]2C(=O)NCc2ccc(-c3scnc3C)cc2)C(C)(C)C)c(C)cc1-n1nnc(S(=O)(=O)c2ccc(C(C)(C)C)cc2)c1C
- CC50 [2]: > 30 µM
- CC50 [3]: > 30 µM
- viability at 30 µM [5]: 94.3%

Continued, in another order:

- DC50 [1]: > 30 µM
SMILES: COc1cc(OCCCCCCOCCOCCOCCCCCC(=O)N[C@H](C(=O)N2C[C@H](O)C[C@H]2C(=O)NCc2ccc(-c3scnc3C)cc2)C(C)(C)C)c(C)cc1-n1nnc(S(=O)(=O)c2ccc(C(C)(C)C)cc2)c1C
- CC50 [2]: > 30 µM
- CC50 [3]: > 30 µM

- DC50 [1]: > 30 µM
SMILES: COc1cc(OCCCCCCOCCOCCOCCOCCOCCOCC(=O)N[C@H](C(=O)N2C[C@H](O)C[C@H]2C(=O)NCc2ccc(-c3scnc3C)cc2)C(C)(C)C)c(C)cc1-n1nnc(S(=O)(=O)c2ccc(C(C)(C)C)cc2)c1C
- CC50 [2]: > 30 µM
- CC50 [3]: > 30 µM

- DC50 [1]: > 30 µM
SMILES: COc1cc(OCCCCCCCC(=O)N[C@H](C(=O)N2C[C@H](O)C[C@H]2C(=O)NCc2ccc(-c3scnc3C)cc2)C(C)(C)C)c(C)cc1-n1nnc(S(=O)(=O)c2ccc(C(C)(C)C)cc2)c1C
- CC50 [2]: > 30 µM
- CC50 [3]: > 30 µM

- DC50 [1]: > 30 µM
SMILES: CCC[C@H](CC)Oc1ccc(C(=O)NCCOCCOCCOCC(=O)N[C@H](C(=O)N2C[C@H](O)C[C@H]2C(=O)NCc2ccc(-c3scnc3C)cc2)C(C)(C)C)cc1NC(=O)c1nnn(-c2cc(OC)ccc2OC)c1C
- viability at 30 µM [4]: 98.3%
- CC50 [2]: > 30 µM
- CC50 [3]: > 30 µM
- viability at 30 µM [5]: 89.1%

- DC50 [1]: > 30 µM
SMILES: CCC[C@H](CC)Oc1ccc(C(=O)NCCOCCOCC(=O)N[C@H](C(=O)N2C[C@H](O)C[C@H]2C(=O)NCc2ccc(-c3scnc3C)cc2)C(C)(C)C)cc1NC(=O)c1nnn(-c2cc(OC)ccc2OC)c1C
- viability at 30 µM [4]: 103%
- CC50 [2]: > 30 µM
- CC50 [3]: > 30 µM
- viability at 30 µM [5]: 89.7%

- DC50 [1]: > 30 µM
SMILES: COc1cc(OCC(=O)NCCOCCOCCOCCOCC(=O)N[C@H](C(=O)N2C[C@H](O)C[C@H]2C(=O)NCc2ccc(-c3scnc3C)cc2)C(C)(C)C)c(C)cc1-n1nnc(S(=O)(=O)c2ccc(C(C)(C)C)cc2)c1C
- CC50 [2]: > 30 µM
- CC50 [3]: > 30 µM

- DC50 [1]: > 30 µM
SMILES: COc1cc(OCCOCCOCCOCCOCCOCCC(=O)N[C@H](C(=O)N2C[C@H](O)C[C@H]2C(=O)NCc2ccc(-c3scnc3C)cc2)C(C)(C)C)c(C)cc1-n1nnc(S(=O)(=O)c2ccc(C(C)(C)C)cc2)c1C
- CC50 [2]: > 30 µM
- CC50 [3]: > 30 µM

- DC50 [1]: > 30 µM
SMILES: COc1cc(OCCOCCOCCOCCOCCC(=O)N[C@H](C(=O)N2C[C@H](O)C[C@H]2C(=O)NCc2ccc(-c3scnc3C)cc2)C(C)(C)C)c(C)cc1-n1nnc(S(=O)(=O)c2ccc(C(C)(C)C)cc2)c1C
- CC50 [2]: > 30 µM
- CC50 [3]: > 30 µM

- DC50 [1]: > 30 µM
SMILES: COc1cc(OCC(=O)N[C@H](C(=O)N2C[C@H](O)C[C@H]2C(=O)NCc2ccc(-c3scnc3C)cc2)C(C)(C)C)c(C)cc1-n1nnc(S(=O)(=O)c2ccc(C(C)(C)C)cc2)c1C
- CC50 [2]: > 30 µM
- CC50 [3]: > 30 µM

- DC50 [1]: > 30 µM
SMILES: COc1cc(OCCCC(=O)N[C@H](C(=O)N2C[C@H](O)C[C@H]2C(=O)NCc2ccc(-c3scnc3C)cc2)C(C)(C)C)c(C)cc1-n1nnc(S(=O)(=O)c2ccc(C(C)(C)C)cc2)c1C
- CC50 [2]: > 30 µM
- CC50 [3]: > 30 µM
- viability at 30 µM [5]: 95.4%

- DC50 [1]: > 30 µM
SMILES: COc1cc(OCCOCCOCCC(=O)N[C@H](C(=O)N2C[C@H](O)C[C@H]2C(=O)NCc2ccc(-c3scnc3C)cc2)C(C)(C)C)c(C)cc1-n1nnc(S(=O)(=O)c2ccc(C(C)(C)C)cc2)c1C
- CC50 [2]: > 30 µM
- CC50 [3]: > 30 µM
- viability at 30 µM [5]: 98.9%

- DC50 [1]: > 30 µM
SMILES: COc1cc(OCCOCCC(=O)N[C@H](C(=O)N2C[C@H](O)C[C@H]2C(=O)NCc2ccc(-c3scnc3C)cc2)C(C)(C)C)c(C)cc1-n1nnc(S(=O)(=O)c2ccc(C(C)(C)C)cc2)c1C
- CC50 [2]: > 30 µM
- CC50 [3]: > 30 µM

- DC50 [1]: > 30 µM
SMILES: COc1cc(OCCOCCOCCOCCC(=O)N[C@H](C(=O)N2C[C@H](O)C[C@H]2C(=O)NCc2ccc(-c3scnc3C)cc2)C(C)(C)C)c(C)cc1-n1nnc(S(=O)(=O)c2ccc(C(C)(C)C)cc2)c1C
- CC50 [2]: > 30 µM
- CC50 [3]: > 30 µM

- DC50 [1]: > 30 µM
SMILES: CCC[C@H](CC)Oc1ccc(C(=O)NCCOCCOCCOCCOCC(=O)N[C@H](C(=O)N2C[C@H](O)C[C@H]2C(=O)NCc2ccc(-c3scnc3C)cc2)C(C)(C)C)cc1NC(=O)c1nnn(-c2cc(OC)ccc2OC)c1C
- viability at 30 µM [4]: 100%
- CC50 [2]: > 30 µM
- CC50 [3]: > 30 µM
- viability at 30 µM [5]: 84.1%
